Ends that are not written are not given here.
How the values were obtained:
U87 MG glioma cells = assay: Competition with binding of NIA to glioma cells by flow cytometry; design: species or system human; conditions: 5 μM NIA (100%) competed with 125 μM competitor
Procedure: FIG. 11C illustrates flow cytometry histogram for CTX (not fluorescent) competing with binding of NIA (content 5 μM CTXtot) at various concentrations of competing CTX. The following combinations were tested: PBS no ligand (solid line), NIA+125 μM CTX (dashed line), NIA+50 μM CTX (dotdashed line), NIA+5 μM (longdashed line), and NIA 5 μM (dash-twodotted line). […] The abscissa intercept indicates the maximum level of fluorescence decrease due to competition at extrapolated infinite concentrations of CTX.
The saturation curves in the insets were calculated as average fluorescence intensities as function of overall CTX, (CTXtot), concentrations. […] Each molecule of NIA contains on average 7.75 groups of CTX. […] Since the inhibitors are not fluorescence labeled, the inhibition would be indicated by the reduction of MFI if NIA is the competed ligand.

[1] = Absorbance spectra of free and conjugated ICG (600-900 nm); type: physicochemical; conditions: PBS pH7.4
Procedure: Absorbance of free and conjugated ICG was measured within a wavelength range of 600-900 nm. Stock solution of free ICG was prepared in DMSO at a concentration of 25 mM and sample was diluted in PBS, pH7.4. FIGS. 3A-3J illustrate absorbance spectra of free and conjugated ICG.

Row | Compound | decrease in mean fluorescence intensity of NIA (U87 MG glioma cells) | maximum absorbance wavelength ([1]; high concentration 100 μM ICG) [nm] | maximum absorbance wavelength ([1]; lower concentration 3 μM ICG) [nm]
1 | P/LLL(40%): polymalic acid with tri-leucine (40%), not fluorescence labelled competitor (Leu-Leu-Leu; not fully specified) | 41-46% |  | 
2 | CC1(C)C(/C=C/C=C/C=C/C=C2\N(CCCCS(=O)(=O)O)c3ccc4ccccc4c3C2(C)C)=[N+](CCCCS(=O)(=O)[O-])c2ccc3ccccc3c21 [free ICG, Indocyanine Green] |  | 695 | 780
